Assay results from patent US20130059096A1, “METHODS AND COATINGS FOR TREATING BIOFILMS” (President and Fellows of Harvard College, priority 2010, published 2013).

How the values were obtained:
[1] = tested on: TasA fibers; experiment: Cell association of TasA fibers by immunogold transmission electron microscopy; type: cell-based, Bacillus subtilis; conditions: 0.1 mM, 24-hour-old Δeps cultures treated for 12 hours
Description: Transmission electron microscopy and immunolabeling. Samples were diluted with distilled water and adsorbed onto a carbon or formvar/carbon coated grid. The grid surface was made hydrophilic prior to use with glow discharge in a vacuum evaporator. Once the specimen was adsorbed onto the film surface, the excess sample was blotted off on a filter paper (Whatman #1) and the grid was floated on 5 μl of stain solution (1-2% aqueous uranyl acetate) for a few minutes and then blotted off. The samples were dried and examined in a Tecnai™ G^2 Spirit BioTWIN microscope at an accelerating voltage of 80 KV. Images were taken with an AMT 2k CCD camera. […]
The cells were grown to stationary phase with shaking in biofilm-inducing medium in the presence or absence of D-tyrosine (6 μM). […] In contrast, when the cells were washed by centrifugation, resuspended and then examined by fluorescence microscopy, untreated cells (which were often in clumps) were seen to be intensely decorated with TasA-mCherry. […] The localization of unmodified TasA protein was also analyzed by transmission electron microscopy using gold-labeled anti-TasA antibodies. […]

[2] = tested on: Pseudomonas aeruginosa; experiment: Attached single cells in well plate, Syto-9 staining; type: cell-based
Description: An alternative method to observe biofilm formation on a 6 well plate with or without D-amino acids and using Syto-9 staining was as follows: Pseudomonas aeruginosa biofilms were washed twice with PBS and then fixed for at least an hour in 5% Glutaraldehyde in PBS. The fixed biofilms were then rinsed once again with PBS and soaked in 0.1% v/v Triton X-100 in PBS (PBST) for 15 minutes. The solution was exchanged with 0.1 nM […] (Invitrogen) in cold PBST and gently rocked in the dark for at least 15 minutes. Fluorescence images of the biofilms were captured with a Leica DMRX compound microscope using a Xe lamp and a K3 Leica filtercube. […] The amount of attached single cells was quantified using image J. The decrease in the amount of cells attached to the epoxy surfaces soaked with D-aa compared with the L-aa control was substantially more.

[3] = tested on: Pseudomonas aeruginosa PA14; experiment: Biofilm formation on polystyrene, crystal violet staining; type: cell-based
Description: Crystal violet staining Crystal violet staining was done as described previously (O'Toole et al., Mol. Microbiol. 30:295 (1998)) except that the cells were grown in 6-well plates. Wells were stained with 500 μl of 1.0% Crystal-violet dye, rinsed twice with 2 ml double-distilled water and thoroughly dried.
P. aeruginosa strain […] was grown in 12-well polystyrene plates for 48 hours at 30° C. in M63 medium containing glycerol (0.2%) and Casamino acids (20 μg/ml). Additionally added to the wells were no amino acids (untreated), D-tyrosine or the D-amino acid equimolar mixture. Cells bound to the polystyrene were visualized by washing away unbound cells and then staining with crystal violet. Wells were stained with 500 μl of 1.0% Crystal-violet dye, rinsed twice with 2 ml double-distilled water and thoroughly dried.
(§1) For experiments reported in Table 1, the organism/strain was S.a. Harvard SCO1, the culture medium was TSB and the cell inoculation was at 2×10^9 cfu. For experiments reported in Table 2, the organism/strain was […], the culture medium was M63 and the cell inoculation was at 1.5×10^9 cfu. Biofilm was visualized using the crystal violet method.

[4] = tested on: Bacillus subtilis; experiment: Disruption of existing 3 day-old pellicles; type: cell-based; conditions: 3 μM added to 3 day-old cultures, further 8 hours
[5] = tested on: S. aureus (strain SCO1); experiment: Biofilm formation on polystyrene, crystal violet staining; type: cell-based, Staphylococcus aureus
Description: Crystal violet staining Crystal violet staining was done as described previously (O'Toole et al., Mol. […] Wells were stained with 500 μl of 1.0% Crystal-violet dye, rinsed twice with 2 ml double-distilled water and thoroughly dried.
The effect of D-amino acids on biofilm formation by other bacteria was examined. The pathogenic bacterium Staphylococcus aureus forms biofilms on plastic surfaces (Otto, Curr. Top. Microbiol. Immunol. 322:207 (2008)), which can be detected by washing away unbound cells and staining the bound cells with crystal violet. […] Additionally added to the wells were no amino acids (untreated), D-tyrosine (50 μM) or the D-amino acid mixture ([…] each). Cells bound to the polystyrene were visualized by washing away unbound cells and then staining with crystal violet.
as §1, with “method. The data is shown below in Tables 1 and 2:” for “method.”
For experiments reported in Tables 3 and 4, the organism/strain was S.a. Harvard SCO1, the culture medium was TSB and the cell inoculation was at 2×10^9 cfu. Biofilm was visualized using the crystal violet method.

[6] = tested on: matrix operons eps and yqxM; experiment: Expression of PyqxM-lacZ and PepsA-lacZ (β-galactosidase activity); type: cell-based, Bacillus subtilis; conditions: 3 μM, strains FC122 and FC5, MSgg, shaking
Description: Assays of β-galactosidase activity. Cells were cultured in MSgg medium at 37° C. in a water bath with shaking 1 ml of culture was collected at each time point. β-galactosidase activity was determined as described previously (Chai et al., Mol. Microbiol. 67:254 (2008)).

[7] = Staphylococcus aureus, 24 h, read-out: % Inhibition relative to control (0%, <50%, 50-90%, >90%)

## N[C@H](Cc1ccc(O)cc1)C(=O)O [D-tyrosine]
[1]
  Cell association of TasA fibers (FIG. 3D): largely undecorated with TasA fibers
[2]; Pseudomonas aeruginosa, 12 h, read-out: % Inhibition relative to control (0%, <50%, 50-90%, >90%)
  inhibition at 50 µM: > 90%
[2]; concentration not given
  number of cells attached to the bottom of the biofilm plate (FIG. 21): dramatic decrease in the number of cells attached
[3]; 10 μM, strain P014, polystyrene, 48 hours at 30° C., M63 medium
  Prevention of biofilm formation (FIG. 10): effective in preventing biofilm formation
[3]; Pseudomonas aeruginosa, PA14, Table 2, 100 nM, 48 h/30° C., polystyrene, M63, read-out: % Inhibition relative to control (0%, <50%, 50-90%, >90%)
  inhibition at 0.1 µM: 0%
[3]; Pseudomonas aeruginosa, PA14, Table 2, 10 μM, 48 h/30° C., polystyrene, M63, read-out: % Inhibition relative to control (0%, <50%, 50-90%, >90%)
  inhibition at 10 µM: > 90%
[3]; Pseudomonas aeruginosa, PA14, Table 2, 100 μM, 48 h/30° C., polystyrene, M63, read-out: % Inhibition relative to control (0%, <50%, 50-90%, >90%)
  inhibition at 100 µM: > 90%
[3]; Pseudomonas aeruginosa, PA14, Table 2, 500 μM, 48 h/30° C., polystyrene, M63, read-out: % Inhibition relative to control (0%, <50%, 50-90%, >90%)
  inhibition at 500 µM: > 90%
[4]
  Breakdown of existing pellicles (FIG. 2C): conspicuous breakdown of pellicles
[5]; 50 μM, 12-well polystyrene, 24 hours at 37° C., TSB with glucose (0.5%) and NaCl (3%)
  Prevention of biofilm formation (FIG. 2E): highly effective in preventing biofilm formation
[5]; [7]
  inhibition at 0.1 µM: 0%
  inhibition at 10 µM: 0%
  inhibition at 100 µM: > 90%
  inhibition at 500 µM: > 90%
[6]
  yqxM and eps expression (FIG. 9A, 9B): substantially the same as the untreated sample
